Reference: patent publication US8425880B1, “Metal-containing materials for treatment of bacterial conditions” (priority 2007, dated 2013)
Values joined by “and” are separate entries in the source; they are usually repeats but may differ in a detail not shown here. Equal entries are not always repeated.

What was measured:
C. difficile = type: cell-based, Clostridium difficile; conditions: for Microdilution MIC: pH 4
[1] = tested on: C. difficile spores (strain ATCC 43596); experiment: Sporicidal assay; type: cell-based, Clostridium difficile; parameters: key to growth after 5-6 days of subculture: presence (+) or absence (−) of growth after 5-6 days of subculture; presence (+) or absence (−) of growth after 5-6 days of subculture
Description: Louis, Mo.). […] Silver preparations were filtered at 0.2 microns and stored in the dark at room temperature. Spore germination was induced as previously described in, for example, […] and Sonenshein A L. Mol Microbiol. 2003 48(3): 811-821; and Ionesco H. C R Acad Sci Hebd […]. 25; 287(6):659-61. C. difficile suspended in BHI was heat-killed at 80° C. for 10 minutes, and germination then stimulated by a 30-min incubation at 50° C. in the presence of 165 μM thioglycollate, followed by a 15-min incubation at 37° C. in the presence of 4 mg/ml lysozyme.

C. perfringens = type: cell-based, Clostridium perfringens

Compound	Microdilution MIC (C. difficile)	inactivation of C. difficile spores [1]	growth after 5-6 days of subculture ([1]; Expt 3, Conc. 0.01%)	growth after 5-6 days of subculture ([1]; Expt 3, Conc. 0.03%)	MIC (C. difficile)	growth after 5-6 days of subculture ([1]; Expt 2, Conc. 0.00005%)	growth after 5-6 days of subculture ([1]; Expt 2, Conc. 0.0005%)	growth after 5-6 days of subculture ([1]; Expt 2, Conc. 0.005%)	growth after 5-6 days of subculture ([1]; Expt 2, Conc. 0.05%)	MIC (C. perfringens)	growth after 5-6 days of subculture ([1]; Expt 1, Conc. 0.02%)	growth after 5-6 days of subculture ([1]; Expt 1, Conc. 0.2%)	growth after 5-6 days of subculture ([1]; Expt 1, Conc. 2%)
silver (I) oxide [Ag2O]	16 ppm and 31 ppm	inactivated the spores of C. difficile	−	−									
O=[N+]([O-])[O-].[Ag+] [AgNO3, Silver nitrate]	18 ppm and 9 ppm	inactivated the spores of C. difficile	−	−	18 (8-23) ppm (μg/ml)	+	−	−	−	92 ppm (μg/ml)			
O=CCCCC=O [Glutaraldehyde, glutaraldehyde]											+	−	−
